# Test results from US20240209004A1, “BORIC ACID DERIVATIVE ACTING AS Beta-LACTAMASE INHIBITOR” (TUOJIE BIOTECH (SHANGHAI) CO., LTD., priority 2021, published 2024).
# Counter-ions that a name gives are not always drawn. Like-named read-outs stand apart in the source and are kept apart here.
# Legend:
# [1] = system: cefepime-resistant Klebsiella pneumoniae expressing different types of β-lactamases; assay: microbe, parasite or virus in culture; type: cell-based; details: Klebsiella pneumoniae
# Experimental: (§1) The biosafety cabinet was sterilized with ultraviolet light for 30 min. Glycerol tubes were taken out of a −80° C. freezer, and streaks were gently formed in the glycerol tubes using inoculating loops. Bacteria were inoculated onto MHIIA solid plates. The plates were incubated overnight in a 37° C. incubator.
# (§2) 30 μL of compound stock solution was added to column 1 of a 96-well v-bottom plate, and DMSO was added to columns 2-10. Subsequently, 15 μL was transferred from column 1 to column 2 using a pipette and well mixed gently, and then 15 μL of solution was transferred from column 2 to column 3: the serial dilution process proceeded to column 10 (200×β-lactamase inhibitor working solutions were prepared). The antibiotic was diluted with a corresponding solvent to form a 1.6 mg/mL solution.
# [2] = system: cefepime-resistant Escherichia coli; assay: MIC in combination with cefepime for drug-resistant bacteria (Test Example 2); type: cell-based; details: Escherichia coli, read-out: CPM MIC
# Experimental: as §1
# as §2, with “3;” for “3:”
# [3] = system: cefepime-resistant Acinetobacter baumannii; assay: as above; type: cell-based; details: Acinetobacter baumannii, read-out: CPM MIC
# Experimental: as §1
# as §2, with “3;” for “3:”
# [4] = system: cefepime-resistant Klebsiella pneumoniae; assay: as above; type: cell-based; details: Klebsiella pneumoniae, read-out: CPM MIC
# Experimental: as §1
# as §2, with “3;” for “3:”
# [5] = system: cefepime-resistant Pseudomonas aeruginosa; assay: as above; type: cell-based
# Experimental: as §1
# as §2, with “3;” for “3:”
# [6] = system: Escherichia coli ATCC 25922; assay: CPM MIC for control strain (Test Example 2); type: cell-based; details: ATCC25922; control strain Escherichia coli ATCC 25922 (printed range 0.016~0.12 μg/mL)
# Experimental: as §1
# as §2, with “3;” for “3:”
# [7] = system: Pseudomonas aeruginosa ATCC 27853; assay: CPM MIC for control strain (Test Example 2); type: cell-based; details: ATCC27853; control strain Pseudomonas aeruginosa ATCC 27853 (printed range 0.5~4 μg/mL)
# Experimental: as §1
# as §2, with “3;” for “3:”
# [8] = system: Klebsiella pneumoniae ATCC BAA-2472; assay: MIC of β-lactamase inhibitors in the presence of antibiotic (Test Example 1); type: cell-based
# Experimental: (§3) • 1) The antibiotics cefepime and biapenem (purchased from MCE Inc.).
# as §1
# as §2, with “two antibiotics were” for “antibiotic was”, “with” for “with a”, “solvents” for “solvent”, “form” for “form a”, “solutions.” for “solution.”
# (§4) 1 μL of 200×B-lactamase inhibitor solution and 1 μL of 1.6 mg/mL antibiotic were added to a new 96-well round-bottom plate. The plate that had been incubated overnight was taken out of the incubator, and several monoclones were picked into normal saline using an inoculating loop. The bacterial solution was adjusted to a concentration of about 1.0×10^8CFU/mL and diluted 200-fold with medium, and 198 μL of the resulting bacterial solution was added to the test plate. The test plate was incubated in a 37° C.incubator for 18-24 h. The 96-well plate that had been incubated for 20 h was taken out of the incubator. The concentration that prevented visible bacterial growth was defined as the minimum inhibitory concentration.
# [9] = system: Klebsiella pneumoniae ATCC BAA-1705; assay: as above; type: cell-based
# Experimental: as §3, §1
# as §2, with “two antibiotics were” for “antibiotic was”, “with” for “with a”, “solvents” for “solvent”, “form” for “form a”, “solutions.” for “solution.”
# as §4
# [10] = system: Escherichia coli ARLG-2829 (Urine); assay: as above; type: cell-based; details: in the presence of Cefepime (8 ug/mL)
# Experimental: as §3, §1
# as §2, with “two antibiotics were” for “antibiotic was”, “with” for “with a”, “solvents” for “solvent”, “form” for “form a”, “solutions.” for “solution.”
# as §4
# [11] = Single intravenous administration exposure, pharmacokinetics (Test Example 4); type: in vivo, ICR mice; details: ICR, mouse, in vivo, iv
# Experimental: The solutions were prepared on the day of administration and stored at 4° C.
# Single intravenous injections were administered to ICR mice, which were grouped as follows. Blood was collected from the saphenous vein or the fundus venous plexus at 0.083 h, 0.25 h, 0.5 h, 1 h, 2 h, 4 h, 6 h and 12 h after administration (about 0.1 mL/time point). A biological analysis method was developed to determine plasma concentrations at different time points, and related pharmacokinetic parameters were calculated.
# [12] = in the presence of Biapenem (8 ug/mL)
# [13] = in the presence of Cefepime (8 ug/mL)
smiles,measurement,setting,value
"CO/N=C(\C(=O)N[C@@H]1C(=O)N2C(C(=O)[O-])=C(C[N+]3(C)CCCC3)CS[C@H]12)c1csc(N)n1 [CPM, cefepime]",MIC,"[1]; ATCCBAA1705, read-out: MIC, CPM, strain ATCC BAA-1705, KPC-2, TEM, SHV, Class A",> 128 µg/mL
same,MIC,"[1]; ATCCBAA1705, read-out: MIC, single substance (1-1-Na, QPX7728, CPM), strain ATCC BAA-1705, KPC-2, TEM, SHV, Class A",64 µg/mL
same,MIC,"[1]; ATCCBAA1898, read-out: MIC, CPM, strain ATCC BAA-1898, KPC-2, Class A",> 128 µg/mL
same,MIC,"[1]; ATCCBAA1898, read-out: MIC, single substance (1-1-Na, QPX7728, CPM), strain ATCC BAA-1898, KPC-2, Class A",64 µg/mL
same,MIC,"[1]; ATCCBAA1899, read-out: MIC, CPM, strain ATCC BAA-1899, KPC-2, Class A",> 128 µg/mL
same,MIC,"[1]; ATCCBAA1899, read-out: MIC, single substance (1-1-Na, QPX7728, CPM), strain ATCC BAA-1899, KPC-2, Class A",32 µg/mL
same,MIC,"[1]; ATCCBAA2343, read-out: MIC, CPM, strain ATCC BAA-2343, KPC, Class A",> 128 µg/mL
same,MIC,"[1]; ATCCBAA2343, read-out: MIC, single substance (1-1-Na, QPX7728, CPM), strain ATCC BAA-2343, KPC, Class A",128 µg/mL
same,MIC,"[1]; ATCCBAA2470, read-out: MIC, CPM, strain ATCC BAA-2470, NDM-1, Class B",> 128 µg/mL
same,MIC,"[1]; ATCCBAA2470, read-out: MIC, single substance (1-1-Na, QPX7728, CPM), strain ATCC BAA-2470, NDM-1, Class B",> 128 µg/mL
same,MIC,"[1]; read-out: MIC, CPM, strain ARLG-1127 (Urine), KPC, KPC-3, TEM, TEM-1, Class A",> 128 µg/mL
same,MIC,"[1]; read-out: MIC, CPM, strain ARLG-1195, CTM-1 group, SHV, NDM, Class A, B",> 128 µg/mL
same,MIC,"[1]; read-out: MIC, CPM, strain ARLG-1196, CTM-1 group, SHV, NDM, TEM, Class A, B",128 µg/mL
same,MIC,"[1]; read-out: MIC, single substance (1-1-Na, QPX7728, CPM), strain ARLG-1127 (Urine), KPC, KPC-3, TEM, TEM-1, Class A",> 128 µg/mL
same,MIC,"[1]; read-out: MIC, single substance (1-1-Na, QPX7728, CPM), strain ARLG-1195, CTM-1 group, SHV, NDM, Class A, B",64 µg/mL
same,MIC,"[1]; read-out: MIC, single substance (1-1-Na, QPX7728, CPM), strain ARLG-1196, CTM-1 group, SHV, NDM, TEM, Class A, B",128 µg/mL
same,MIC,[2]; strain FDA-CDC AR-BANK#0055,> 8 µg/mL
same,MIC,[2]; strain FDA-CDC AR-BANK#0114,> 8 µg/mL
same,MIC,[2]; strain FDA-CDC AR-BANK#0370,> 8 µg/mL
same,MIC,[2]; strain FDA-CDC AR-BANK#0371,> 8 µg/mL
same,MIC,[3]; strain FDA-CDC AR-BANK#0033,> 8 µg/mL
same,MIC,[3]; strain FDA-CDC AR-BANK#0035,> 8 µg/mL
same,MIC,[3]; strain FDA-CDC AR-BANK#0078,> 8 µg/mL
same,MIC,[4]; strain FDA-CDC AR-BANK#0003,> 8 µg/mL
same,MIC,[4]; strain FDA-CDC AR-BANK#0076,> 8 µg/mL
same,MIC,[4]; strain FDA-CDC AR-BANK#0080,> 8 µg/mL
same,MIC,[4]; strain FDA-CDC AR-BANK#0126,> 8 µg/mL
same,MIC,[4]; strain FDA-CDC AR-BANK#0158,> 8 µg/mL
same,MIC,"[5]; strain FDA-CDC AR-BANK#0246, read-out: CPM MIC",> 8 µg/mL
same,MIC,"[5]; strain FDA-CDC AR-BANK#0439, read-out: CPM MIC",> 8 µg/mL
same,MIC,"[5]; strain FDA-CDC AR-BANK#0441, read-out: CPM MIC",> 8 µg/mL
same,MIC,"[5]; strain FDA-CDC AR-BANK#0444, read-out: CPM MIC",> 8 µg/mL
same,MIC,[6],0.0156 µg/mL
same,MIC,[7],1 µg/mL
O=C(O)c1c2c(cc3c1OB(O)C1CC31)OCCO2 (centres unmarked) [Compound 1],Minimum inhibitory concentration,[8]; [12],4 µg/mL
same,Minimum inhibitory concentration,[8]; [13],16 µg/mL
same,Minimum inhibitory concentration,[9]; [12],≤0.03125 µg/mL
same,Minimum inhibitory concentration,[9]; [13],0.5 µg/mL
same,Minimum inhibitory concentration,[10],0.5 µg/mL
O=C(O)c1c2c(cc3c1OB(O)C1CC31)OC(F)(F)O2 (centres unmarked) [Compound 2],Minimum inhibitory concentration,[8]; [12],>16 µg/mL
same,Minimum inhibitory concentration,[8]; [13],>16 µg/mL
same,Minimum inhibitory concentration,[9]; [12],1 µg/mL
same,Minimum inhibitory concentration,[9]; [13],>16 µg/mL
same,Minimum inhibitory concentration,[10],>16 µg/mL
O=C(O)c1c(F)ccc2c1OB(O)[C@@H]1C[C@H]21 [QPX7728 disodium salt],AUC(0-inf),[11]; 10 mg/kg,46 µg·h/mL
same,AUC(0-t),[11]; 10 mg/kg,44.7 µg·h/mL
same,Cmax,[11]; 10 mg/kg,65.8 µg/mL
same,Tmax,[11]; 10 mg/kg,4.98 min
same,t½z,[11]; 10 mg/kg,174 min
same,AUC(0-inf),[11]; 100 mg/kg,300 µg·h/mL
same,AUC(0-t),[11]; 100 mg/kg,297 µg·h/mL
same,Cmax,[11]; 100 mg/kg,399 µg/mL
same,Tmax,[11]; 100 mg/kg,4.98 min
same,t½z,[11]; 100 mg/kg,126 min
NCCN[C@H]1CC[C@H](CC(=O)N[C@H]2Cc3cccc(C(=O)O)c3OB2O)CC1 [VNRX-5133],Minimum inhibitory concentration,[8]; [12],2 µg/mL
same,Minimum inhibitory concentration,[8]; [13],>16 µg/mL
same,Minimum inhibitory concentration,[9]; [12],≤0.03125 µg/mL
same,Minimum inhibitory concentration,[9]; [13],0.25 µg/mL
same,Minimum inhibitory concentration,[10],2 µg/mL
